In brackets after ≈: the same amount, converted by molar mass.
What was measured:
UM‐UC‐14 [FGFR3_S249C] = assay: In vitro cell growth assay; format: cell-based; settings: Homo sapiens, UMUC14, 120 h, read-out: IC50, anti-proliferative effect
[1] = tested on: adriamycin‐resistant UM‐UC‐14 cell line; assay: In vitro cell growth assay, adriamycin-resistant UM-UC-14
[2] = cited from earlier work; for T 1/2: clinical information; for hyperphosphatemia: clinical
[3] = tested on: urothelial cancer harboring FGFR3 gene alternation; settings: 25 evaluable urothelial cancer patients with FGFR3 gene alternation; cited from earlier work
RT‐112 [FGFR3‐TACC3] = assay: In vitro cell growth assay; format: cell-based; settings: Homo sapiens, RT-112, 120 h, read-out: IC50, proliferation
[4] = tested on: tumors harboring FGFR3‐TACC3 fusion genes; settings: patients with tumors harboring FGFR3-TACC3 fusion genes; cited from earlier work
[5] = tested on: c‐MYC expression in lung cancer cell lines harboring FGFR1 overexpression; settings: cited from earlier work

In the case of `COc1cccc2c1C(=O)c1c(O)c3c(c(O)c1C2=O)C[C@@](O)(C(=O)CO)C[C@@H]3O[C@H]1C[C@H](N)[C@H](O)[C@H](C)O1` [Adriamycin], the IC50 (UM‐UC‐14 [FGFR3_S249C]) is reported as 6.7 ng/mL (≈ 0.0123 µM), the IC50 ([1]; Homo sapiens, UMUC14, 120 h, read-out: IC50, anti-proliferative effect) is reported as 58 ng/mL (≈ 0.107 µM) and the “fold weaker anti-proliferative effect in resistant vs parental cell line” value ([1]; adriamycin-resistant UM-UC-14 vs parental UM-UC-14) is reported as 8.7 folds.
In the case of `CCN1CCN(c2ccc(Nc3cc(N(C)C(=O)Nc4c(Cl)c(OC)cc(OC)c4Cl)ncn3)cc2)CC1` [BGJ398, 3‐(2,6‐dichloro‐3,5‐dimethoxy‐phenyl)‐1‐{6‐[4‐(4‐ethyl‐piperazin‐1‐yl)‐phenylamino]‐pyrimidin‐4‐yl}‐1‐methyl‐urea], the “T 1/2” value [2] is given as “quite large”, the hyperphosphatemia [2] is given as “commonly observed” and the overall response rate [3] is given as 36%.
Work on `Nc1ccn([C@@H]2O[C@H](CO)[C@@H](O)C2(F)F)c(=O)n1` [Gemcitabine] yielded an IC50 (RT‐112 [FGFR3‐TACC3]) of 0.95 ng/mL (≈ 0.00361 µM).
For `COc1cc(OC)cc(N(CCNC(C)C)c2ccc3ncc(-c4cnn(C)c4)nc3c2)c1` [JNJ‐42756493], the “T 1/2” value [2] is listed as “quite large”, the hyperphosphatemia [2] is listed as “commonly observed” and the partial responses [4] is listed as “three out of four partial responses”.
In the case of `CCN(CC)CCCCNc1ncc2cc(-c3cc(OC)cc(OC)c3)c(NC(=O)NC(C)(C)C)nc2n1` [PD173074, 1‐tert‐butyl‐3‐[6‐(3,5‐dimethoxy‐phenyl)‐2‐(4‐diethylamino‐butylamino)‐pyrido[2,3‐d]pyrimidin‐7‐yl]‐urea], the c-MYC expression [5] is listed as “decreased”.

Reference: publication PMC5329164 (Cancer Science, 2017)
